Reference: PMC9038204, “SNX27–Retromer directly binds ESCPE-1 to transfer cargo proteins during endosomal recycling” (PLoS Biology, 2022)
Like-named read-outs stand apart in the source and are kept apart here. One block for each substance: values may come before it. Where no end group is shown, it is not given here.

Key:
SNX6 = assay: GFP trap co-immunoprecipitation from HEK-293T, quantitative western blot: SNX6; format: binding; settings: Fig. 3F, GFP-tagged SNX1 WT or mutant as bait, WT set to 100, mean of n = 4
Experimental: (§1) HeLa and HEK-293T cell lines were sourced from ATCC. Authentication was from the ATCC. Cells were grown in DMEM (Sigma-Aldrich) supplemented with 10% (v/v) FCS (Sigma-Aldrich) and penicillin/streptomycin (Gibco, USA) and grown under standard conditions. FuGENE HD (Promega, USA) was used for transient transfection of DNA according to the manufacturer’s instructions. Cycloheximide was used to prevent up-regulation of protein synthesis. In this case, cycloheximide (C7698; Sigma-Aldrich) at 10 μg/ml was added to the cells 48 hours after FuGENE transfection for the indicated time points. For the generation of CRISPR-Cas9 SNX27 knockout HeLa cells, HeLa cells were transfected with pX330 plasmid coding for the gRNA against the gene of interest together with a puromycin resistance–expressing plasmid. Cells were then subjected to puromycin selection for 24 hours. The pooled population of cells was subjected to lysis and western blotting to confirm the knockout. The VPS35 knockout clonal cell line used in this study was characterized previously. For GFP-based immunoprecipitations, HEK293T cells were transfected with GFP constructs using polyethylenimine (Sigma-Aldrich) and expression was allowed for 48 hours.
(§2) For western blotting, cells were lysed in PBS with 1% (v/v) Triton X-100 and protease inhibitor cocktail. The protein concentration was determined with a BCA assay kit (Thermo Fisher Scientific, USA), and equal amounts were resolved on NuPAGE 4% to 12% precast gels (Invitrogen, USA). Blotting was performed onto polyvinylidene fluoride membranes (Immobilon-FL; EMD Millipore, USA) followed by detection using the Odyssey infrared scanning system (LI-COR Biosciences, USA). For GFP-based immunoprecipitations, HEK-293T cells were lysed 48 hours after transfection in immunoprecipitation buffer (50 mM Tris-HCl, 0.5% (v/v) NP-40, and Roche protease inhibitor cocktail) and subjected to GFP trap (ChromoTek, Germany). Immunoblotting was performed using standard procedures. Detection was performed on an Odyssey infrared scanning system (LI-COR Biosciences) using fluorescently labeled secondary antibodies. In using the Odyssey, we routinely performed western blot analysis where a single blot is simultaneously probed with antibodies against 2 proteins of interest (distinct antibody species) followed by visualization with the corresponding secondary antibodies conjugated to distinct spectral dyes.

SNX27 = assay: GFP trap co-immunoprecipitation of GFP-SNX1/SNX2 constructs from HEK-293T, quantitative western blot: SNX27; format: binding; settings: for SNX27 co-immunoprecipitated (quantitative western blot), mean: Fig. 3F, GFP-tagged SNX1 WT or mutant as bait, HEK-293T, WT set to 100, mean of n = 4; for reduced binding to SNX27: full-length GFP-SNX1 point mutants in HEK293T, versus SNX1 WT
Experimental: as §1, §2

[1] = target: T1, full-length mouse SNX27 (mSNX27FL) (Mus musculus, UniProt Q3UHD6); assay: ITC, hSNX1/2 peptides against mSNX27FL; format: binding; settings: 25°C, 50 mM HEPES pH 7.5, 200 mM NaCl, 5% glycerol, 1 mM β-ME, 800 μM peptide titrated into 20 μM mSNX27FL, single-site fit, mean of at least 2 experiments
T1 construct: DNA encoding full-length mouse SNX27 (mSNX27FL hereafter) was inserted into the pMCSG7 vector; made in house; host or cells: Escherichia coli BL21 CodonPlus (DE3)
Experimental: Human SNX1 and SNX2 peptide sequences were synthesized by Genscript (USA). To obtain the peptide stock solutions at neutral pH, 100 mM Tris-HCl, pH 10.6 was used to dissolve the peptide to a final concentration of 8 mM. The peptides were SNX1_35-51 […], SNX135-51(D45K) […], SNX1_75-92 […], SNX2_16-33 […], SNX2_16-33(DLF/SSS) […], and SNX2_62-82 […].
All microcalorimetry experiments were conducted at 25°C using a PEAQ ITC (Malvern, UK) in 50 mM HEPES (pH 7.5), 200 mM NaCl, 5% glycerol, and 1 mM β-ME (ITC buffer). All proteins were purified by SEC using the same buffer prior to ITC experiments to avoid buffer mismatches. To measure binding of SNX27 to SNX1 proteins, 800 μM of hSNX27FERM was titrated into 20 μM of GST-mSNX1_1-139 or His-SNX1FL. For the binding of SNX1 and SNX2 peptides to SNX27, peptides were diluted 10-fold to 800 μM in ITC buffer peptides and titrated into 20 μM SNX27FL proteins containing the same 1:10 ratio of peptide buffer (100 mM Tris-HCl, pH 10.6). The competitive ITC experiments were carried out by titrating 800 μM SNX1_75-92 peptides into 20 μM proteins with 2-fold molar excess SNX2_16-33 peptide preincubated with SNX27 on ice for an hour. For ITC experiment using SNX1_75-92 against hSNX27 wild-type and single-site mutants, 600 μM SNX1_75-92 peptide was titrated into 20 μM hSNX27 proteins.
The ITC experiments were conducted with 1 injection of 0.4 μL followed by a series of 12 injections of 3.2 μL each with 180-second intervals and a stirring speed of 850 rpm. The heat exchange of interactions was obtained through integrating the observed peaks and background correction by subtracting the heats of dilution. Data were analyzed with Malvern software package by fitting and normalized data to a single-site binding model, yielding the thermodynamic parameters Kd, ΔH, ΔG, and −TΔS for all binding experiments. The stoichiometry was refined initially, and if the value was close to 1, then N was set to exactly 1.0 for calculation. All experiments were performed at least twice to guarantee reproducibility of the data.

[2] = system: HeLa cells, EEA1 endosomes; assay: Colocalization of GFP-tagged SNX27 or SNX1 constructs with EEA1 (Pearson); format: cell-based
Experimental: (§3) Cells were fixed in 4% (v/v) PFA for 20 minutes and washed 3 times in PBS and permeabilized with 0.1% (v/v) Triton X-100. For LAMP1 staining, cells were instead permeabilized by submersion in liquid nitrogen for 20 seconds. Fixed cells were blocked in 1% (w/v) BSA and incubated in primary antibody and respective secondary antibody (Alexa Fluor; Thermo Fisher Scientific) in 1% (w/v) BSA.
(§4) Microscopy images were collected with a confocal laser-scanning microscope (SP5 AOBS; Leica Microsystems, Germany) attached to an inverted epifluorescence microscope (DMI6000; […]). A 63× 1.4 NA oil immersion objective (Plan Apochromat BL; Leica Biosystems, Germany) and the standard SP5 system acquisition software and detector were used. Images were captured at room temperature as z stacks with photomultiplier tube detectors with a photocathode made of gallium-arsenide-phosphide (Leica Microsystems) for collecting light emission. Images were captured using Application Suite AF software (version 2.7.3.9723; Leica Microsystems) and then analyzed with the Volocity 6.3 software (PerkinElmer, USA).

[3] = system: HeLa cells, SNX6 endosomes; assay: Colocalization of GFP-tagged SNX27 or SNX1 constructs with SNX6 (Pearson); format: cell-based
Experimental: as §3, §4

[4] = system: HeLa cells, endogenous GLUT1; assay: Cycloheximide degradation assay, GLUT1 level; format: cell-based; settings: for GLUT1 level, 0h: 0h (set to 100)
Experimental: as §1, §2

[5] = system: HeLa cells, endogenous ITGA5; assay: Cycloheximide degradation assay, ITGA5 level; format: cell-based; settings: for ITGa5 level, 0h: 0h (set to 100)
Experimental: as §1, §2

[6] = 8h relative to 0h = 100, replicate n1, Fig. 6C
[7] = 8h relative to 0h = 100, replicate n2, Fig. 6C
[8] = 8h relative to 0h = 100, replicate n3, Fig. 6C

Substance: D45K
- SNX6 co-immunoprecipitated (quantitative western blot), mean (SNX6): 102
- SNX27 co-immunoprecipitated (quantitative western blot), mean (SNX27; GFP trap): 45.07

Substance: D87K
- SNX6 co-immunoprecipitated (quantitative western blot), mean (SNX6): 115.6
- SNX27 co-immunoprecipitated (quantitative western blot), mean (SNX27; GFP trap): 34.69

Substance: E42K
- SNX6 co-immunoprecipitated (quantitative western blot), mean (SNX6): 105.5
- SNX27 co-immunoprecipitated (quantitative western blot), mean (SNX27; GFP trap): 52.35

Substance: E44K
- SNX6 co-immunoprecipitated (quantitative western blot), mean (SNX6): 113.2
- SNX27 co-immunoprecipitated (quantitative western blot), mean (SNX27; GFP trap): 63.19

Substance: E84K
- SNX6 co-immunoprecipitated (quantitative western blot), mean (SNX6): 104.1
- SNX27 co-immunoprecipitated (quantitative western blot), mean (SNX27; GFP trap): 45.59

- Kd ([1]; read-out: Kd): 33.4 ± 1.89 µM
Substance: EAGDSDTEGEDIFTGAA [SNX1_35-51]

Substance: EAGDSDTEGEKIFTGAA [SNX1_35-51(D45K), SNX1 35–51 peptide with charge swap mutation D45K]
- Kd ([1]; listed as SNX1(D45K)): no detectable binding
- Kd ([1]; listed as hSNX135-51 (D45K)): No binding detected

Substance: F47K
- SNX6 co-immunoprecipitated (quantitative western blot), mean (SNX6): 98.51
- SNX27 co-immunoprecipitated (quantitative western blot), mean (SNX27; GFP trap): 42.86

Substance: F89D
- SNX6 co-immunoprecipitated (quantitative western blot), mean (SNX6): 109.4
- SNX27 co-immunoprecipitated (quantitative western blot), mean (SNX27; GFP trap): 41.68

Substance: GFP-SNX1(D45K): full-length GFP-SNX1 point mutant in the first aDLF motif
- reduced binding to SNX27 (SNX27; Fig 3F): around 50%

Substance: GFP-SNX1(D45K,D87K): double mutant targeting key residues in both aDLF motifs of SNX1
- SNX27 binding, in words (SNX27; Fig 3F, S2B Fig, double aDLF mutants in HEK293T, GFP trap): near undetectable levels

Substance: GFP-SNX1(E42K): full-length GFP-SNX1 point mutant in the first aDLF motif
- reduced binding to SNX27 (SNX27; Fig 3F): around 50%

Substance: GFP-SNX1(E44K): full-length GFP-SNX1 point mutant in the first aDLF motif
- reduced binding to SNX27 (SNX27; Fig 3F): around 50%

Substance: GFP-SNX1(F47K): full-length GFP-SNX1 point mutant in the first aDLF motif
- reduced binding to SNX27 (SNX27; Fig 3F): around 50%

Substance: GFP-SNX1(I46K): full-length GFP-SNX1 point mutant in the first aDLF motif
- reduced binding to SNX27 (SNX27; Fig 3F): around 50%

Substance: GFP-SNX1: GFP-tagged full-length SNX1
- colocalization with EEA1 (SNX1 vs EEA1), mean ([2]; mean of n = 3): 0.4267
- colocalization with EEA1 (SNX1 vs EEA1) ([2]; replicate n1): 0.53
- colocalization with EEA1 (SNX1 vs EEA1) ([2]; replicate n2): 0.34
- colocalization with EEA1 (SNX1 vs EEA1) ([2]; replicate n3): 0.41
- colocalization with SNX6 (SNX1 vs SNX6), mean ([3]; mean of n = 3): 0.6597
- colocalization with SNX6 (SNX1 vs SNX6) ([3]; replicate n1): 0.81
- colocalization with SNX6 (SNX1 vs SNX6) ([3]; replicate n2): 0.506
- colocalization with SNX6 (SNX1 vs SNX6) ([3]; replicate n3): 0.663

Substance: I46K
- SNX6 co-immunoprecipitated (quantitative western blot), mean (SNX6): 90.56
- SNX27 co-immunoprecipitated (quantitative western blot), mean (SNX27; GFP trap): 47.55

Substance: KO +GFP-SNX1
- GLUT1 level, 0h ([4]; replicate n1, Fig. 6C): 100
- GLUT1 level, 0h ([4]; replicate n2, Fig. 6C): 100
- GLUT1 level, 0h ([4]; replicate n3, Fig. 6C): 100
- GLUT1 level, 0h, Mean 1 ([4]; 0h, mean of n = 3, Fig. 6C): 100
- GLUT1 level, 8h, Mean 2 ([4]; 8h relative to 0h = 100, mean of n = 3, Fig. 6C): 106.2
- GLUT1 level, 8h [4, 6]: 90.4645
- GLUT1 level, 8h [4, 7]: 112.847
- GLUT1 level, 8h [4, 8]: 115.364
- ITGa5 level, 0h ([5]; replicate n1, Fig. 6C): 100
- ITGa5 level, 0h ([5]; replicate n2, Fig. 6C): 100
- ITGa5 level, 0h ([5]; replicate n3, Fig. 6C): 100
- ITGa5 level, 0h, Mean 1 ([5]; 0h, mean of n = 3, right-hand (unlabelled) statistics block, Fig. 6C): 100
- ITGa5 level, 8h [5, 6]: 98.9429
- ITGa5 level, 8h [5, 7]: 105.348
- ITGa5 level, 8h [5, 8]: 145.221

- Kd ([1]; listed as SNX2(DLF-SSS)): no detectable binding
- Kd ([1]; listed as hSNX216-33 (DLF-SSS)): No binding detected
Substance: TDFEDLEDGESSSTSTVS [SNX2_16-33(DLF/SSS), SNX2 16–33 peptide with triple mutation DLF-SSS]

- Kd ([1]; read-out: Kd): 22.6 ± 1.89 µM
Substance: TEVVLDDDREDLFAEATEEVS [SNX2_62-82]
